Values of other authors as cited in patent US12630501B2, “Anti-fibrotic compounds and use thereof” (HADASIT MEDICAL RESEARCH SERVICES AND DEVELOPMENT LTD., priority 2019, dated 2026).

How the values were obtained:
[1] = cited from earlier work
[2] = test system: breast cancer cells and pancreatic cancer cells; settings: cited from earlier work
[3] = target: T1, HDAC6 (Homo sapiens, UniProt Q9UBN7); settings: prostate cancer cells; cited from earlier work
T1 sequence (Q9UBN7 1-1215): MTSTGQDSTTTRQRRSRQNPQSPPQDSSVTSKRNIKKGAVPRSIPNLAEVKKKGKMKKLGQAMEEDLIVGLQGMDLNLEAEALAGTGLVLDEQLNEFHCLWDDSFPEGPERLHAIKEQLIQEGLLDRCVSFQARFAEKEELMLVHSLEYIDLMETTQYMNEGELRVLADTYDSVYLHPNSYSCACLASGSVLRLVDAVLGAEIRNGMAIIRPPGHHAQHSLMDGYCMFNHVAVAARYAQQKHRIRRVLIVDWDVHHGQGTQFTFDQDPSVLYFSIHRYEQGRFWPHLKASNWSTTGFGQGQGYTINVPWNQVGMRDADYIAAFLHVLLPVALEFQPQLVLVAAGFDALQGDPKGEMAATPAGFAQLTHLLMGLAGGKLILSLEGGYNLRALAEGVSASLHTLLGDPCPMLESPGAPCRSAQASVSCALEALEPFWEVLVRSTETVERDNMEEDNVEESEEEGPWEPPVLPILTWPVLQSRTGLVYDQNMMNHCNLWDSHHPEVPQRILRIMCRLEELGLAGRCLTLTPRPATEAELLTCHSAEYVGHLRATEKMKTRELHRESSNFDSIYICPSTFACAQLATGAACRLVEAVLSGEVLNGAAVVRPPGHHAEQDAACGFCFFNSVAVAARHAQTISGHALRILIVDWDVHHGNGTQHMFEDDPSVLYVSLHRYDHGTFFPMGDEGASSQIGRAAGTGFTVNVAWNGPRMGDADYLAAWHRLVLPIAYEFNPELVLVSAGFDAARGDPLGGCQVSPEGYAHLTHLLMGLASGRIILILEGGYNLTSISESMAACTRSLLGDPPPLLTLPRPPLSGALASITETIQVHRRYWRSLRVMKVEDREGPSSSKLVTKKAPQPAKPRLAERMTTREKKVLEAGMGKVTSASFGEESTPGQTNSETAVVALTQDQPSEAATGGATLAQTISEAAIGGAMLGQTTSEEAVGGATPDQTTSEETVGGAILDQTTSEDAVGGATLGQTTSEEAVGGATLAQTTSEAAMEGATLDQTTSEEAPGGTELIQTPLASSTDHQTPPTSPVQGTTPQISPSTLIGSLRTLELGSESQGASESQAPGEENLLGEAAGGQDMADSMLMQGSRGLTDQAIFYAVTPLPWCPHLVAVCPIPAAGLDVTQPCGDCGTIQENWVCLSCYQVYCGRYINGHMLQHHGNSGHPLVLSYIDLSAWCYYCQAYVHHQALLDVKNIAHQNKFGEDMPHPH

## Cc1cc(Cl)ccc1OCCCC(=O)NO [CMH, 4-(4-chloro-2-methylphenoxy)-N-hydroxybutanamide]
[1]
  Water solubility: low
[2]
  Apoptosis: increase
  FLIP expression: downregulate
[3]
  Inhibition of HDAC6: Selective inhibition
